Laboratory results published in patent publication US7649002B2, “(3,5-dimethylpiperidin-1yl)(4-phenylpyrrolidin-3-yl)methanone derivatives as MCR4 agonists” (Pfizer Inc, priority 2004, dated 2010).

Columns and labels:
human MCR3 receptor = target: T1, human MCR3 receptor (Homo sapiens, UniProt P41968); assay: MCR3 standard functional assay (Protocol B): cAMP AlphaScreen in HEK cells; assay type: cell-based; details: Table 5
T1 construct: expressed in transfected cells
Description: (§1) Stimulation of adenylate cyclase following receptor activation is a widely used measure of functional activity for a number of receptor systems. The functional assay to measure cyclic AMP (cAMP) utilises human embryonic kidney (HEK) cells that stably express the human melanocortin MCR1, MCR3 or MCR4 receptor. Activation of MCR1, MCR3 or MCR4 receptors stimulates adenylate cyclase, generating cAMP, which is measured using AlphaScreen™ (PerkinElmer assay kits.
(§2) The AlphaScreen™ cAMP assay kit consists of ‘donor beads’, ‘acceptor beads’, and biotinylated cAMP which links the different beads together. Excitation of this linked complex at […] in the Fusion™-α microplate analyser results in light emission between […].
(§3) (i) MCR1. MCR3 and MCR4 Standard Functional Assay Methodology [Assay Protocol A, B AND C Respectively]
(§4) Determination of activity against the human MCR1, MCR3 and MCR4 receptor subtypes was carried out for compounds according to the present invention using three immortalised human embryonic kidney (HEK) cell lines that had been biologically engineered to express the human melanocortin MCR1, MCR3 or MCR4 receptor subtypes. These cell lines were engineered using protocols akin to those outlined by Gouarderes et al (Gouarderes, C., (2002) Neuroscience, 115(2); 349-361).
(§5) Such-compound-induced activation of these MCR1, MCR3 or MCR4 receptors lead to the stimulation of the cellular enzyme adenylate cyclase, which in turn lead to the cellular generation, and intra-cellular accumulation, of cyclic adenosine monophosphate (cAMP). […] Intracellular levels of cAMP were quantified using the commercially available AlphaScreen™ assay kits from PerkinElmer. A detailed assay protocol and an explanation of the concept underlying this kit is available through the PerkinElmer website (www.perkinelmer.com). The protocol listed below provides a summary this information.
(§6) The quantity of intracellular cAMP produced by compound-induced activation of the MCR1, MCR3 and MCR4 receptors in these three cell lines was measured using a Fusion™-α microplate analyser set to stimulate at a wavelength of 680 nm and to measure the energy emitted at wave lengths between […]. Compound-induced increases in MCR1, MCR3 or MCR4 receptor activation were subsequently quantified as a decrease in the quantity of light emitted at wavelengths between […]. Data analysis was subsequently performed using a curve-fitting program and the apparent potency of the test compound (expressed as an EC50 and defined as the effective compound concentration that elicited 50% of the maximum compound-induced response) extrapolated from the fitted curve.
Stimulation buffer (as per AlphaScreen™ protocol): HBSS supplemented with 0.5 mM IBMX, 5 mM HEPES, 0.1% (w/v) BSA and 10 mM MgCl2.
Lysis buffer (as per AlphaScreen™ protocol): 5 mM HEPES solution supplemented with 0.1% (w/v) BSA and 0.3% (v/v) Tween-20.
Detection mix (as per AlphaScreen™ protocol): Lysis buffer supplemented with the biotinylated cAMP (10 nM) and Donor beads (10 μg/ml) as supplied in the AlphaScreenT cAMP assay kit.
For the MCR1, MCR3 and MCR4 standard functional assay methodologies compounds were initially dissolved in DMSO to give a compound concentration of 4 mM and then further diluted for the assay in stimulation buffer to give actual concentrations 2-fold greater than that desired as the final assay concentration.
The three HEK cell lines, as detailed hereinbefore, expressing the human MCR1, MCR3 or MCR4 receptor subtypes were grown in T225 vent cap flasks containing 50 ml of growth medium (DMEM supplemented with 10% (v/v) FCS, 2 mM L-Glutamine, 25 mM HEPES and 1.0 mg/ml Geneticin) and maintained in a cell incubator at a temperature of 37° C. and in an environment containing 5% CO2. Cells were harvested when they reached 80-90% confluency by first removing the existing growth medium and then washing with PBS that had been pre-warmed to a temperature of 37° C. […]

human MCR4 receptor = target: T2, human MCR4 receptor (Homo sapiens, UniProt P32245); assay: MCR4 standard functional assay (Protocol C): cAMP AlphaScreen in HEK cells; assay type: cell-based; details: Table 5
T2 construct: expressed in transfected cells
Description: as §1, §2, §3, §4, §5, §6
Stimulation buffer (as per AlphaScreen™ protocol): HBSS supplemented with 0.5 mM IBMX, 5 mM HEPES, 0.1% (w/v) BSA and 10 mM MgCl2. […]

T1 sequence (P41968 whole entry): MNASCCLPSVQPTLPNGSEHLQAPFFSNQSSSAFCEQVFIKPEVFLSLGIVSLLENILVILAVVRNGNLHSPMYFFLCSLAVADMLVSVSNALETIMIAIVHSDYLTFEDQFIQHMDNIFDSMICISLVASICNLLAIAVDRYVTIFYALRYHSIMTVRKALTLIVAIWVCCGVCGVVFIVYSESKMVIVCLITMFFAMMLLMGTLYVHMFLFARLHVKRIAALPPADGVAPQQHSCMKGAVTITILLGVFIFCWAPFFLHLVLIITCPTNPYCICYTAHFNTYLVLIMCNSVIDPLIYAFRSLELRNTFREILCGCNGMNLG
T2 sequence (P32245 whole entry): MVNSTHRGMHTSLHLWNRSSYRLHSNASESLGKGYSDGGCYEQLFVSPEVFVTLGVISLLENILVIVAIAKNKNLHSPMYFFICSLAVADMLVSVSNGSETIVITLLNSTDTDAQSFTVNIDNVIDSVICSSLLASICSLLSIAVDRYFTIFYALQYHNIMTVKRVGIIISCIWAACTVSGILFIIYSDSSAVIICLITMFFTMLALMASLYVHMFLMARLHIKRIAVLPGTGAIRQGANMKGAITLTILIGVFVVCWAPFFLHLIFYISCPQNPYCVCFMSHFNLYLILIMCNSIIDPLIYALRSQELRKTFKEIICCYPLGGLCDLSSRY

Selectivity MCR3/MCR4 (human MCR3 receptor; MCR4 by Protocol C): 60 | EC50 (human MCR3 receptor; Protocol B): 2.62 µM | EC50 (human MCR4 receptor): 0.044 µM
SMILES: CCCC[C@@]1(O)[C@H](C)CN(C(=O)[C@@H]2CN(C(C)(C)C)C[C@H]2c2ccc(F)cc2F)C[C@@H]1C [Example 3, (3R,4R,5S)-4-Butyl-1-{[(3S,4R)-1-tert-butyl-4-(2,4-difluorophenyl)pyrrolidin-3-yl]carbonyl}-3,5-dimethylpiperidin-4-ol]
